Where a name gives a salt, the structure may show the parent alone.
Legend:
[1] = system: mexY (EC) strain; assay: Efflux ability inhibition effect on drug efflux pump MexY (Test Examples 1 and 3): proliferation (OD595) of mexY (EC) strain with EM or LVFX at 1/4 MIC, EC75; type: cell-based, Escherichia coli; conditions: Table 51, Test Example 1, 16 to 20 hours culture, OD595; for EC75, mexY (EC) strain, EM: combined with EM at 1/4 MIC; for EC75, mexY (EC) strain, LVFX: combined with LVFX at 1/4 MIC
In short: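 E. coli ΔacrB/ΔtolC strains carrying P. aeruginosa MexAB-OprM or MexXY-OprM were grown in LB for 16 to 20 hours with EM or LVFX at ¼ MIC plus compound (0 to 800 μM). Growth was read as OD595. EC75 is the lowest compound concentration giving ≥75% growth inhibition versus antibiotic alone.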

[2] = system: mexB (EC) strain; assay: Efflux ability inhibition effect on drug efflux pump MexB (Test Examples 1 and 3): proliferation (OD595) of mexB (EC) strain with EM or LVFX at 1/4 MIC, EC75; type: cell-based, Escherichia coli; conditions: Table 51, Test Example 1, 16 to 20 hours culture, OD595; for EC75, mexB (EC) strain, LVFX: combined with LVFX at 1/4 MIC; for EC75, mexB (EC) strain, EM: combined with EM at 1/4 MIC
Description: The efflux ability inhibition effect of the test compound on the drug efflux pump was evaluated using the bacterial proliferative ability in the presence of EM or LVFX as an index.
EM is a macrolide antibacterial agent and is a drug that is discharged outside the bacteria by MexB and MexY LVFX is a quinolone antibacterial agent and is a drug that is discharged outside the bacteria by MexB and MexY In a case where the test compound has an efflux ability inhibitory ability against the drug efflux pump, the proliferation of bacteria is suppressed by the combined use of EM or LVFX and the test compound, as compared with the case where EM or LVFX is used alone.
A mutant strain (hereinafter, referred to as an “mexB (EC) strain”) obtained by transferring the genes of the main multidrug efflux system MexAB-OprM of Pseudomonas aeruginosa described in Nature, 2013, Vol. 500, pp. 102 to 106 as a plasmid into Escherichia coli strains in which the acrB and tolC genes of the multidrug efflux system AcrAB-TolC were deleted as described in Journal of Infection and Chemotherapy 2008, Vol. 14, pp. 23 to 29, and a gene transfer strain (hereinafter, referred to as an “mexY (EC) strain”) of another main multidrug efflux system MexXY-OprM of Pseudomonas aeruginosa were used for the evaluation of test compounds.
In the mexB (EC) strain, an expression level of MexB of the drug efflux pump is accelerated, and in the mexY (EC) strain, an expression level of MexY of the drug efflux pump is accelerated.
For culturing each Escherichia coli strain, a 96-well plate (amount of culture medium per well: 100 μL) was used and Luria-Bertani broth (LB) culture medium was used. The inoculation amount of the bacteria was set to 10^4 to 5 CFU/well.
The mexB (EC) strain and the mexY (EC) strain were cultured for 16 to 20 hours in a culture medium to which EM or LVFX and test compounds at various concentrations (0 to 800 μM) were added, and the proliferation of the bacterial strains was evaluated by optical turbidity at 595 nm (OD595). The concentration of the antibacterial agents (EM and LVFX) in the culture medium were each set to ¼ of the minimum inhibitory concentration (MIC) (hereinafter, referred to as ¼ MIC) of the single antibacterial agent.
The proliferation of bacteria in a case where the antibacterial agent was added at the concentration of ¼ MIC in a case where the test compound was not added was measured, and compared with the proliferation of bacteria in a case where the test compound was contained, and the lowest concentration of the test compound at which the proliferation was inhibited by 75% or more was defined as the drug efflux pump inhibitory ability of the test compound as 75% inhibitory effect concentration (EC75).
The drug efflux pump inhibitory ability of each test compound in a case of being used in combination with the antibacterial agent against the mexB (EC) strain and the mexY (EC) strain was evaluated as follows according to the value of EC75. • S: EC75≤[…] • A: 12.5 μM<EC75≤25 μM • B: 25 μM<EC75≤100 μM • C: […]
In the same manner as in Test Example 1, the efflux ability inhibition effect of the test compound on the drug efflux pump was evaluated using the bacterial proliferation ability in the presence of EM or LVFX as an index.

SMILES | EC75, mexY (EC) strain, EM [1] | EC75, mexY (EC) strain, LVFX [1] | EC75, mexB (EC) strain, LVFX [2] | EC75, mexB (EC) strain, EM [2]
COc1ccccc1CN1CCN(C(=O)CN2CCC(NCc3ccccc3)CC2)CC1 [Example 419, hydrochloride of 2-(4-(benzylamino)piperidin-1-yl)-1-(4-(2-methoxybenzyl)piperazin-1-yl)ethan-1-one] | B (25 μM<EC75≤100 μM) | B (25 μM<EC75≤100 μM) | A (12.5 μM<EC75≤25 μM) | –
COc1ccccc1CN1CCN(C(=O)C(=NO)C2CCN(CCc3ccccc3)CC2)CC1 [Example 302, hydrochloride of 2-(hydroxyimino)-1-(4-(2-methoxybenzyl)piperazin-1-yl)-2-(1-phenethylpiperidine-4-yl)ethan-1-one] | B (25 μM<EC75≤100 μM) | B (25 μM<EC75≤100 μM) | – | B (25 μM<EC75≤100 μM)
COc1ccccc1CN1CCN(C(=O)CN2CCC(N)(CCc3ccccc3)CC2)CC1 [Example 414, hydrochloride of 2-(4-amino-4-phenethylpiperidin-1-yl)-1-(4-(2-methoxybenzyl)piperazin-1-yl)ethan-1-one] | B (25 μM<EC75≤100 μM) | B (25 μM<EC75≤100 μM) | A (12.5 μM<EC75≤25 μM) | –
COc1ccccc1CN1CCN(C(=O)[C@H](N)C2CCN(CC(CN)c3ccccc3)CC2)CC1 (stereo partly drawn) [Example 136, hydrochloride of (2R)-2-amino-2-(1-(3-amino-2-phenylpropyl)piperidin-4-yl)-1-(4-(2-methoxybenzyl)piperazin-1-yl)ethan-1-one] | B (25 μM<EC75≤100 μM) | B (25 μM<EC75≤100 μM) | – | B (25 μM<EC75≤100 μM)
COc1ccccc1CN1CCN(C(=O)CN2CCC(CN)(CCc3ccccc3)CC2)CC1 [Example 413, hydrochloride of 2-(4-(aminomethyl)-4-phenethylpiperidin-1-yl)-1-(4-(2-methoxybenzyl)piperazin-1-yl)ethan-1-one] | A (12.5 μM<EC75≤25 μM) | – | A (12.5 μM<EC75≤25 μM) | A (12.5 μM<EC75≤25 μM)
COCCOc1cccc(F)c1CN1CCN(C(=O)[C@H](N)C2CCN(CCc3ccccc3)CC2)CC1 [Example 116, Hydrochloride of (R)-2-amino-1-(4-(2-fluoro-6-(2-methoxyethoxy)benzyl)piperazin-1-yl)-2-(1-phenethylpiperidin-4-yl)ethan-1-one] | B (25 μM<EC75≤100 μM) | B (25 μM<EC75≤100 μM) | A (12.5 μM<EC75≤25 μM) | A (12.5 μM<EC75≤25 μM)

Source: patent publication US20250326744A1, “PIPERAZINE DERIVATIVE OR SALT THEREOF, AND PHARMACEUTICAL COMPOSITION” (priority 2022, published 2025)
